These molecules were tested against T1, Membrane-associated tyrosine- and threonine-specific cdc2-inhibitory kinase (Homo sapiens, UniProt Q99640) (assay: PKMYT1 HTRF Assay).
T1 sequence (Q99640 whole entry): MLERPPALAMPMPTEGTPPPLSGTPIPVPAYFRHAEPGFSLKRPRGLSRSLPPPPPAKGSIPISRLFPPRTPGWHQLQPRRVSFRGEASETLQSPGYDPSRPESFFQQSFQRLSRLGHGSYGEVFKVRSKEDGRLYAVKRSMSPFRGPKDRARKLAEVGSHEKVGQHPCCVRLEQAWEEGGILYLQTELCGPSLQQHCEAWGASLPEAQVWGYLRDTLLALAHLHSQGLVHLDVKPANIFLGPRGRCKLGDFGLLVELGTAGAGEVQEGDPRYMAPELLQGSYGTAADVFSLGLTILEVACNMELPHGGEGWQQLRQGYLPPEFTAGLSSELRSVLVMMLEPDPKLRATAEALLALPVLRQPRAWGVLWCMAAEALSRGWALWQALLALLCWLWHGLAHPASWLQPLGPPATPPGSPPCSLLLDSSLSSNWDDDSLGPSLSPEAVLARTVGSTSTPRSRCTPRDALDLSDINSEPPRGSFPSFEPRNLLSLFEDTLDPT
Protocol: Compound serial dilution is performed by Echo, and the final concentrations vary from 10 μM to 0.5 nM. This was filled by the addition of 5 μL/well of Enzyme solution to the assay plate containing the compound. The plate was centrifuged at 1000 rpm for 1 minute, and incubate 15 minutes at 25 […]. Then 5 μL/well of tracer solution (Tracer 178) was added to initiate the reaction, and incubate for 60 minutes at 25° C. Next 5 μL GST-Tb was added into the assay plate, the plate was centrifuged at 1000 rpm for 1 minute, and incubate for 15 minutes at 25 […]. The assay plate was read on Envision.
Cc1ncc(-c2cc3c(Cl)c(-c4c(C)ccc(O)c4C)cnc3[nH]2)cn1 [US20250136596, Example 23] was tested, and the IC50 was < 0.01 µM.
For Cc1ncc(-c2[nH]c3ncc(-c4c(C)ccc(O)c4C)c(C#N)c3c2F)cn1 [US20250136596, Example 35], the IC50 was < 0.01 µM.
In the case of CNc1ncc(-c2cc3c(C#N)c(-c4c(C)ccc(O)c4C)cnc3[nH]2)cn1 [US20250136596, Example 41], the IC50 is reported as < 0.01 µM.
For COc1ncc(-c2cc3c(C#N)c(-c4c(C)ccc(O)c4C)cnc3[nH]2)cn1 [US20250136596, Example 51], the IC50 was < 0.01 µM.
In the case of Cc1ccc(O)c(C)c1-c1cnc2[nH]c(-c3cncc(C#N)c3)cc2c1C#N [US20250136596, Example 61], the IC50 is reported as < 0.01 µM.
For Cc1ccc(O)c(C)c1-c1cnc2[nH]c(-c3cnc(N)c(C(F)(F)F)c3)cc2c1C#N [US20250136596, Example 62], the IC50 was < 0.01 µM.
In the case of Cc1ccc(O)c(C)c1-c1cnc2[nH]c(-c3cnc(S(C)(=O)=O)nc3)cc2c1C#N [US20250136596, Example 95], the IC50 is reported as < 0.01 µM.
With Cc1ncc(-c2[nH]c3ncc(-c4c(C)ccc(O)c4C)c(C#N)c3c2C)cn1 [US20250136596, Example 107] the IC50 was < 0.01 µM.
Cc1ccc(O)c(C)c1-c1cnc2[nH]c(-c3cnc4cn[nH]c4c3)cc2c1C#N [US20250136596, Example 124] was tested, and the IC50 was < 0.01 µM.

— BindingDB's records for patent US20250136596 (Insilico Medicine IP, 2025)
